Experimental data: ChEMBL document CHEMBL5634112, “Synthesis and biological evaluation of fluoroquinolones containing a pyridoxine derivatives moiety” (Eur J Med Chem, 2023)
Values after ≈ are worked out from the molar mass of the structure shown. Active and inactive are the calls of the source. The calls are words filed in the database; no cut-off is given here.

Key:
[1] = Cytotoxicity against human HSF assessed as reduction in cell viability incubated for 72 hrs by MTT assay; format: toxicity, cell-based; conditions: HSF cells
[2] = Cytotoxicity against human MSC assessed as reduction in cell viability incubated for 72 hrs by MTT assay; format: toxicity, cell-based; conditions: MSC cells
[3] = Cytotoxicity against human CHL assessed as reduction in cell viability incubated for 72 hrs by MTT assay; format: toxicity, cell-based; conditions: CHL cells
Escherichia coli [4] = test: Antibacterial activity against Escherichia coli ATCC 25922 assessed as reduction in microbial growth incubated for 24 hrs by broth microdilution method; format: functional
Pseudomonas aeruginosa [5] = test: Antibacterial activity against Pseudomonas aeruginosa ATCC 27853 assessed as reduction in microbial growth incubated for 24 hrs by broth microdilution method; format: functional
Staphylococcus aureus [6] = test: Antibacterial activity against methicillin sensitive Staphylococcus aureus ATCC 29213 assessed as reduction in microbial growth incubated for 24 hrs by broth microdilution method; format: functional
Topoisomerase IV = Topoisomerase IV (Staphylococcus aureus, UniProt P0C1S7+P0C1U9); test: Inhibition of Staphylococcus aureus topoisomerase-IV assessed as reduction in decatenation using kinetoplast DNA as substrate incubated for 30 mins by ethidium bromide staining based agarose gel electrophoresis method; format: protein-complex assay
Salmonella typhimurium = test: Antibacterial activity against Salmonella typhimurium TA100 assessed as reduction in microbial growth incubated for 24 hrs by broth microdilution method; format: functional, Salmonella enterica subsp. enterica serovar Typhimurium; conditions: Salmonella enterica
Bacillus subtilis = test: Antibacterial activity against Bacillus subtilis 168 assessed as reduction in microbial growth incubated for 24 hrs by broth microdilution method; format: functional
[7] = Toxicity in po dosed female F1 C57Bl6 x CBA mouse assessed as lethal dose; format: organism-based; conditions: in vivo
Klebsiella pneumoniae = test: Antibacterial activity against clinical isolate Klebsiella pneumoniae 1678 assessed as reduction in microbial growth incubated for 24 hrs by broth microdilution method; format: functional
Klebsiella aerogenes = test: Antibacterial activity against clinical isolate Enterobacter aerogenes NKC 8 assessed as reduction in microbial growth incubated for 24 hrs by broth microdilution method; format: functional
[8] = Toxicity in F1 C57Bl6 x CBA mouse assessed as liver darkening at 125 mg/kg, po after 14 days; format: organism-based; conditions: in vivo, 336 h, time 14 day
[9] = Toxicity in F1 C57Bl6 x CBA mouse assessed as kidney darkening at 125 mg/kg, po after 14 days; format: organism-based; conditions: in vivo, 336 h, time 14 day
Cedecea davisae = test: Antibacterial activity against clinical isolate Cedecea davisae 1813 assessed as reduction in microbial growth incubated for 24 hrs by broth microdilution method; format: functional
[10] = Genotoxicity in Salmonella typhimurium TA100 by Ames test; format: toxicity; conditions: salmonella enterica subsp. enterica serovar typhimurium
[11] = Genotoxicity in Salmonella typhimurium TA102 by Ames test; format: toxicity; conditions: salmonella enterica subsp. enterica serovar typhimurium
DNA gyrase [12] = target: T1, DNA gyrase (Staphylococcus aureus, UniProt P0A0K8+P20831); test: Inhibition of Staphylococcus aureus DNA gyrase using supercoiled pBR322 DNA as substrate incubated for 60 mins by ethidium bromide staining based agarose gel electrophoresis method; format: protein-complex assay
[13] = Toxicity in rat assessed as liver darkening at 2000 mg/kg, po after 14 days; format: organism-based; conditions: in vivo, 336 h, time 14 day
[14] = test system: Staphylococcus epidermidis; test: Antibacterial activity against clinical isolate Staphylococcus epidermidis assessed as reduction in microbial growth incubated for 24 hrs by broth microdilution method; format: functional
[15] = Toxicity in po dosed male F1 C57Bl6 x CBA mouse assessed as lethal dose; format: organism-based; conditions: in vivo
[16] = Toxicity in F1 C57Bl6 x CBA mouse assessed as mortality at […] 125 to 500 mg/kg, po relative to control; format: organism-based; conditions: in vivo, at 125 to 500 mg/kg, dose 125-500 mg/kg
Staphylococcus aureus [17] = test: Antibacterial activity against clinical isolate Staphylococcus aureus 4721 assessed as reduction in microbial growth incubated for 24 hrs by broth microdilution method; format: functional
[18] = Toxicity in rat assessed as kidney darkening at 2000 mg/kg, po after 14 days; format: organism-based; conditions: in vivo, 336 h, time 14 day
Enterococcus faecalis = test: Antibacterial activity against clinical isolate Enterococcus faecalis 1465 assessed as reduction in microbial growth incubated for 24 hrs by broth microdilution method; format: functional
Staphylococcus aureus [19] = test: Antibacterial activity against clinical isolate methicillin resistant Staphylococcus aureus 4771 assessed as reduction in microbial growth incubated for 24 hrs by broth microdilution method; format: functional
Pseudomonas aeruginosa [20] = test: Antibacterial activity against clinical isolate Pseudomonas aeruginosa NKC 17 assessed as reduction in microbial growth incubated for 24 hrs by broth microdilution method; format: functional
[21] = Genotoxicity in Salmonella typhimurium TA98 by Ames test; format: toxicity; conditions: salmonella enterica subsp. enterica serovar typhimurium
[22] = test system: Staphylococcus auricularis; test: Antibacterial activity against clinical isolate Staphylococcus auricularis NKC 7 assessed as reduction in microbial growth incubated for 24 hrs by broth microdilution method; format: functional
[23] = test system: Staphylococcus haemolyticus; test: Antibacterial activity against clinical isolate Staphylococcus haemolyticus 1464 assessed as reduction in microbial growth incubated for 24 hrs by broth microdilution method; format: functional
Staphylococcus aureus [24] = test: Antibacterial activity against clinical isolate Staphylococcus aureus 1812 assessed as reduction in microbial growth incubated for 24 hrs by broth microdilution method; format: functional
[25] = test system: Staphylococcus epidermidis; test: Antibacterial activity against clinical isolate Staphylococcus epidermidis NKC 37/1 assessed as reduction in microbial growth incubated for 24 hrs by broth microdilution method; format: functional
[26] = Toxicity in po dosed rat assessed as lethal dose; format: organism-based; conditions: in vivo
DNA gyrase [27] = target: T1, DNA gyrase; test: Inhibition of Staphylococcus aureus DNA gyrase using relaxed pBR322 DNA as substrate incubated for 30 mins by ethidium bromide staining based agarose gel electrophoresis method; format: protein-complex assay
[28] = test system: Staphylococcus haemolyticus; test: Antibacterial activity against clinical isolate Staphylococcus haemolyticus NKC 31/2 assessed as reduction in microbial growth incubated for 24 hrs by broth microdilution method; format: functional
[29] = Toxicity in F1 C57Bl6 x CBA mouse assessed as mortality at 1000 to 2000 mg/kg, po relative to control; format: organism-based; conditions: in vivo, dose 1000-2000 mg/kg
[30] = Toxicity in male F1 C57Bl6 x CBA mouse assessed as mortality at 125 mg/kg, po; format: organism-based; conditions: in vivo
[31] = Toxicity in female F1 C57Bl6 x CBA mouse assessed as mortality at 125 mg/kg, po; format: organism-based; conditions: in vivo
[32] = Toxicity in female F1 C57Bl6 x CBA mouse assessed as mortality at 1000 mg/kg, po; format: organism-based; conditions: in vivo
Escherichia coli [33] = test: Antibacterial activity against clinical isolate Escherichia coli NKC 1 assessed as reduction in microbial growth incubated for 24 hrs by broth microdilution method; format: functional
[34] = Toxicity in male F1 C57Bl6 x CBA mouse assessed as mortality at 1000 to 2000 mg/kg, po; format: organism-based; conditions: in vivo, dose 1000-2000 mg/kg
Micrococcus luteus = test: Antibacterial activity against clinical isolate Micrococcus luteus assessed as reduction in microbial growth incubated for 24 hrs by broth microdilution method; format: functional
[35] = Toxicity in male rat assessed as mortality at 2000 mg/kg, po; format: organism-based; conditions: in vivo
Staphylococcus aureus [36] = test: In vivo antibacterial activity against Staphylococcus aureus N-10 infected in Po dosed SHK mouse model of sepsis assessed as survival measured after 14 days; format: functional; conditions: N-10, 336 h, time 14 day
Staphylococcus aureus [37] = test: Potency index ratio of ciprofloxacin ED50 to test compound ED50 for invivo antibacterial activity against Staphylococcus aureus N-10 infected in Po dosed SHK mouse model of sepsis; format: functional
Staphylococcus aureus [38] = test: In vivo antibacterial activity against Staphylococcus aureus N-10 infected in SHK mouse model of sepsis assessed as animal death at 2 to 4 mg/kg, po measured after 5 to 14 days; format: functional, organism-based; conditions: dose 2-4 mg/kg, time 5-14 day
[39] = Toxicity in female rat assessed as mortality at 2000 mg/kg, po; format: organism-based; conditions: in vivo
Staphylococcus aureus [40] = test: In vivo antibacterial activity against Staphylococcus aureus N-10 infected in SHK mouse model of sepsis assessed as survival at 16 to 18 mg/kg, po measured after 14 days relative to control; format: functional, organism-based; conditions: dose 16-18 mg/kg, time 14.0 day
[41] = Toxicity in F1 C57Bl6 x CBA mouse assessed as mortality at 2000 mg/kg, po; format: organism-based; conditions: in vivo
[42] = Toxicity in po dosed F1 C57Bl6 x CBA mouse assessed as lethal dose; format: organism-based; conditions: in vivo

COc1c(N2C[C@@H]3CCCN[C@@H]3C2)c(F)cc2c(=O)c(C(=O)O)cn(C3CC3)c12 [MOXIFLOXACIN]
CC50 at 72 h [1]: 36.5 µg/mL (≈ 90.8 µM)
CC50 at 72 h [2]: 39.4 µg/mL (≈ 98.2 µM)
CC50 at 72 h [3]: 35 µg/mL (≈ 87.2 µM)
MIC (Escherichia coli [4]): 1 µg/mL
MIC (Pseudomonas aeruginosa [5]): 4 µg/mL
MIC (Staphylococcus aureus [6]): 0.5 µg/mL
IC50 (Topoisomerase IV): 29.9 µM
MIC (Salmonella typhimurium): 1 µg/mL
MIC (Bacillus subtilis): 2 µg/mL

COc1c(N2C[C@@H]3CCCN(Cc4cnc(C)c(O)c4C)[C@@H]3C2)c(F)cc2c(=O)c(C(=O)O)cn(C3CC3)c12.Cl.Cl
LD50 [7]: 541 mg/kg
MIC (Klebsiella pneumoniae): 64 µg/mL
MIC (Klebsiella aerogenes): 16 µg/mL
CC50 at 72 h [1]: 17.6 µg/mL
CC50 at 72 h [2]: 12.7 µg/mL
Activity [8]: Non-Toxic
Activity [9]: Non-Toxic
MIC (Cedecea davisae): 0.03 µg/mL
Activity [10]: Non-Toxic
Activity [11]: Non-Toxic
IC50 (DNA gyrase [12]): > 656 µM
Activity [13]: Toxic
MIC [14]: 0.5 µg/mL
CC50 at 72 h [3]: 8.22 µg/mL
MIC (Escherichia coli [4]): 2 µg/mL
MIC (Pseudomonas aeruginosa [5]): 1 µg/mL
LD50 [15]: 406 mg/kg
mortality [16]: 0%
MIC (Staphylococcus aureus [6]): 0.5 µg/mL
MIC (Staphylococcus aureus [17]): 0.06 µg/mL
Activity [18]: Toxic
MIC (Enterococcus faecalis): 4 µg/mL
MIC (Staphylococcus aureus [19]): 0.06 µg/mL
MIC (Pseudomonas aeruginosa [20]): 64 µg/mL
Activity [21]: Non-Toxic
MIC [22]: 0.03 µg/mL
MIC [23]: 0.06 µg/mL
IC50 (Topoisomerase IV): 26.2 µM
MIC (Staphylococcus aureus [24]): 0.25 µg/mL
MIC [25]: 0.06 µg/mL
LD50 [26]: > 2000 mg/kg
MIC (Salmonella typhimurium): 1 µg/mL
IC50 (DNA gyrase [27]): 85.3 µM
MIC [28]: 8 µg/mL
mortality [29]: > 80%
Activity [30]: Non-Toxic
Activity [31]: Non-Toxic
Activity [32]: Toxic
MIC (Escherichia coli [33]): 2 µg/mL
MIC (Bacillus subtilis): 0.5 µg/mL
Activity [34]: Toxic
MIC (Micrococcus luteus): 0.5 µg/mL
Activity [35]: Non-Toxic

O=C(O)c1cn(C2CC2)c2cc(N3CCNCC3)c(F)cc2c1=O [CIPROFLOXACIN]
CC50 at 72 h [1]: 52.8 µg/mL (≈ 159 µM)
CC50 at 72 h [2]: 41.6 µg/mL (≈ 126 µM)
CC50 at 72 h [3]: 29.3 µg/mL (≈ 88.5 µM)
MIC (Pseudomonas aeruginosa [5]): 1 µg/mL
ED50 (Staphylococcus aureus [36]): 11.2 mg/kg
MIC (Salmonella typhimurium): 1 µg/mL
MIC (Bacillus subtilis): 0.5 µg/mL

Cc1ncc(CN2CCN(c3cc4c(cc3F)c(=O)c(C(=O)O)cn4C3CC3)CC2)c(CO)c1O.Cl
MIC (Klebsiella pneumoniae): 8 µg/mL
Ratio ED50 (Staphylococcus aureus [37]): 1.5
MIC (Klebsiella aerogenes): 2 µg/mL
CC50 at 72 h [1]: 34.5 µg/mL
Activity (Staphylococcus aureus [38]): inactive
CC50 at 72 h [2]: 40.3 µg/mL
Activity [39]: Non-Toxic
MIC (Cedecea davisae): 1 µg/mL
Activity [10]: Non-Toxic
Activity [11]: Non-Toxic
Activity (Staphylococcus aureus [40]): Active
IC50 (DNA gyrase [12]): 59.7 µM
MIC [14]: 2 µg/mL
CC50 at 72 h [3]: 30.9 µg/mL
MIC (Escherichia coli [4]): 2 µg/mL
MIC (Pseudomonas aeruginosa [5]): > 64 µg/mL
MIC (Staphylococcus aureus [6]): 2 µg/mL
MIC (Staphylococcus aureus [17]): 0.5 µg/mL
MIC (Enterococcus faecalis): 32 µg/mL
ED50 (Staphylococcus aureus [36]): 7.3 mg/kg
MIC (Staphylococcus aureus [19]): 1 µg/mL
MIC (Pseudomonas aeruginosa [20]): 16 µg/mL
Activity [21]: Non-Toxic
MIC [22]: 0.03 µg/mL
MIC [23]: 1 µg/mL
IC50 (Topoisomerase IV): 397 µM
MIC (Staphylococcus aureus [24]): 1 µg/mL
MIC [25]: 0.5 µg/mL
LD50 [26]: > 2000 mg/kg
MIC (Salmonella typhimurium): 2 µg/mL
IC50 (DNA gyrase [27]): 1460 µM
MIC [28]: 8 µg/mL
Activity [41]: Non-Toxic
MIC (Escherichia coli [33]): 0.5 µg/mL
MIC (Bacillus subtilis): 2 µg/mL
LD50 [42]: > 2000 mg/kg
MIC (Micrococcus luteus): 4 µg/mL
Activity [35]: Non-Toxic
